Eight molecules from ChEMBL document CHEMBL1201862, “PubChem BioAssay data set” (2004) can be followed below.

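Results reflect a 48-hour exposure of cells in 96-well plates to compound at five concentrations. GI50: concentration for 50% inhibition of growth.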 The source made the active and inactive calls. Rule as the data show it: active = GI50 up to about 1.1 µM and inactive = higher. Where a SMILES comes first, the peptide text is derived from it. The star is where a group is joined. Cbz = O=C(OCc1ccccc1)*

Test systems include UACC-62; T47D; A498; NCI-H522; LOX IMVI; SF-295; NCI/ADR-RES; SW-620; COLO 205; NCI-H460; Hs-578T; SK-OV-3; MCF7; K562; CCRF-CEM; SF-268; UO-31; OVCAR-4; ACHN; BT-549.
Holding throughout (assay): inhibition of tumour cell growth, NCI panel, 48 h

Turning to `C[C@]12CCC(=O)O[C@H]1CCCCO2`, the GI50 in the assay with UACC-62, with T47D, in the assay with A498, in the assay on NCI-H522, with LOX IMVI and in the assay with SF-295 was > 100 µM (inactive) each time. Besides, the GI50 in the assay with NCI/ADR-RES, in the assay with SW-620, in the assay on COLO 205, in the assay on NCI-H460, with Hs-578T and with SK-OV-3 was > 100 µM (inactive) in each case. For the same molecule, the GI50 with MCF7, in the assay with K562, with CCRF-CEM and with SF-268 was > 100 µM (inactive) each time.

Regarding `Cc1cc(N(C)c2ccccc2)nc(N(C)c2ccccc2)n1`, the GI50 with UO-31 was 80.2 µM (inactive); in the assay on OVCAR-4, > 100 µM (inactive); in the assay with UACC-62, 28.6 µM (inactive); in the assay with A498, 64.9 µM (inactive); with NCI-H522, 36.9 µM (inactive); with LOX IMVI, 13.3 µM (inactive). Also, the GI50 was 20.2 µM (inactive) with SF-295; 58.3 µM (inactive) in the assay on NCI/ADR-RES; 43.1 µM (inactive) with SW-620; 28.4 µM (inactive) in the assay on ACHN; 23.9 µM (inactive) in the assay with COLO 205; 49.9 µM (inactive) in the assay on NCI-H460. For the same molecule, the GI50 with Hs-578T is 26.8 µM (inactive); with SK-OV-3, > 100 µM (inactive); with MCF7 it was 33.7 µM (inactive); in the assay with K562, 49.9 µM (inactive); in the assay with CCRF-CEM it was 23.6 µM (inactive); in the assay on SF-268, 54 µM (inactive).

For `O=CC12C3CCC1C2C(=O)C3` (configuration not stated), the GI50 in the assay with OVCAR-4, with UACC-62, in the assay with NCI-H522, in the assay with LOX IMVI, with SF-295 and in the assay with NCI/ADR-RES was > 100 µM (inactive) each time. Also, the GI50 with SW-620, with BT-549, in the assay on ACHN, in the assay on COLO 205, in the assay on NCI-H460 and in the assay on SK-OV-3 was > 100 µM (inactive) in each case. Moreover, the GI50 in the assay with MCF7, in the assay on K562, with CCRF-CEM and with SF-268 was > 100 µM (inactive) in each case.

`CC[C@@]1(OC(=O)CN(C)C)C(=O)OCc2c1cc1n(c2=O)Cc2cc3ccccc3nc2-1`: the GI50 in the assay on UO-31 is 0.0296 µM (active); in the assay with OVCAR-4, 0.482 µM (active); in the assay on UACC-62, 0.00569 µM (active); in the assay on A498, 0.205 µM (active); in the assay with NCI-H522, 0.255 µM (active); with LOX IMVI it was 0.0198 µM (active). Moreover, the GI50 with SF-295 is 0.01 µM (active); in the assay with NCI/ADR-RES it was 0.0421 µM (active); with SW-620, 0.098 µM (active); in the assay with BT-549, 0.0536 µM (active); in the assay with ACHN, 0.00875 µM (active); with COLO 205, 0.394 µM (active). The GI50 is 0.00533 µM (active) in the assay on NCI-H460; 4.24 µM (inactive) in the assay with Hs-578T; 0.071 µM (active) in the assay on SK-OV-3; 0.00853 µM (active) in the assay on MCF7; 0.061 µM (active) in the assay on K562; 0.00256 µM (active) in the assay on CCRF-CEM. Besides, the GI50 with SF-268 was < 0.0131 µM (active).

With `CCOC(=O)/C(=C\n1c(=O)sc2ccccc21)C(=O)c1ccccc1`, the GI50 in the assay on UO-31 was 26 µM (inactive); with OVCAR-4, > 100 µM (inactive); with UACC-62, > 100 µM (inactive); in the assay with T47D it was 22.4 µM (inactive); in the assay on A498, > 100 µM (inactive); in the assay with NCI-H522 it was 48 µM (inactive). The GI50 is > 100 µM (inactive) in the assay on LOX IMVI; 88.1 µM (inactive) in the assay on SF-295; > 100 µM (inactive) with NCI/ADR-RES; > 100 µM (inactive) with SW-620; > 100 µM (inactive) in the assay with ACHN; > 100 µM (inactive) in the assay with COLO 205. For the same molecule, the GI50 is > 100 µM (inactive) in the assay on NCI-H460; 39.6 µM (inactive) with Hs-578T; > 100 µM (inactive) with SK-OV-3; > 100 µM (inactive) in the assay with MCF7; 44.3 µM (inactive) in the assay with K562; > 100 µM (inactive) with CCRF-CEM. The GI50 in the assay with SF-268 was > 100 µM (inactive).

With `COC(=O)CCc1ccc2c(c1)C(=O)CC2`, the GI50 in the assay on UO-31, with OVCAR-4, in the assay on T47D, in the assay on A498, in the assay with NCI-H522 and with LOX IMVI was > 100 µM (inactive) in each case. Besides, the GI50 in the assay on SF-295, in the assay on NCI/ADR-RES, with SW-620, with ACHN, in the assay with NCI-H460 and in the assay with Hs-578T was > 100 µM (inactive) each time. Moreover, the GI50 in the assay with SK-OV-3, in the assay on MCF7, in the assay with K562, in the assay with CCRF-CEM and with SF-268 was > 100 µM (inactive) in each case.

Take `N#C[C@H]1C(=O)C(c2nc3ccccc3[nH]2)S[C@H]1c1ccccc1` (some centres not stated): the GI50 in the assay with UO-31 is 26.9 µM (inactive); in the assay with OVCAR-4, 34.2 µM (inactive); with UACC-62, 15.3 µM (inactive); in the assay with A498 it was 22.1 µM (inactive); with NCI-H522, 21.2 µM (inactive); in the assay with LOX IMVI, 42 µM (inactive). Moreover, the GI50 in the assay with SF-295 was 25.2 µM (inactive); in the assay with NCI/ADR-RES, 30.9 µM (inactive); with SW-620, 32.5 µM (inactive); in the assay with BT-549 it was 26.5 µM (inactive); in the assay with ACHN it was 20 µM (inactive); in the assay with COLO 205, 51.5 µM (inactive). Also, the GI50 in the assay on NCI-H460 is 35.1 µM (inactive); with Hs-578T it was 45.2 µM (inactive); in the assay with SK-OV-3, 47.1 µM (inactive); in the assay with MCF7, 28.4 µM (inactive); in the assay on K562, 35.2 µM (inactive); in the assay with CCRF-CEM, 38.4 µM (inactive).

On to `CCOC(=O)CCC(NC(=O)C(CC(=O)OC)NC(=O)OCc1ccccc1)C(=O)NC(CC(=O)OC)C(=O)NC(CCC(=O)OCC)C(=O)NC(CC(=O)OC)C(=O)NC(CCC(=O)OCC)C(=O)NC(CC(=O)OCC)C(=O)OCC` (configuration not stated) (Cbz-D(OMe)E(OEt)D(OMe)E(OEt)D(OMe)E(OEt)D(OEt)-OEt; configuration not given here), for which the GI50 with UO-31 is > 100 µM (inactive); in the assay on OVCAR-4 it was > 100 µM (inactive); with UACC-62, > 100 µM (inactive); in the assay with T47D it was > 100 µM (inactive); in the assay on A498, 98.9 µM (inactive); in the assay with NCI-H522, > 100 µM (inactive). The GI50 with LOX IMVI, with SW-620, with BT-549, in the assay on ACHN, with NCI-H460 and in the assay on MCF7 was > 100 µM (inactive) in each case. The GI50 in the assay on K562 and in the assay on CCRF-CEM was > 100 µM (inactive) in each case.
